Measured values published in ChEMBL document CHEMBL2062379, “Cleavage mechanism and anti-tumor activity of 3,6-epidioxy-1,10-bisaboladiene isolated from edible wild plants” (Bioorg Med Chem, 2012).
The source made the active and inactive calls. No cut-off for these calls is given here.

What was measured:
MCF7 = assay: Growth inhibition of human MCF7 cells; assay type: functional
MDA-MB-231 = assay: Growth inhibition of human MDA-MB-231 cells; assay type: functional
U-251 = assay: Growth inhibition of human U251 cells; assay type: functional
SF-268 = assay: Growth inhibition of human SF268 cells; assay type: functional
SF-295 = assay: Growth inhibition of human SF295 cells; assay type: functional
SF-539 = assay: Growth inhibition of human SF539 cells; assay type: functional
SNB-75 = assay: Growth inhibition of human SNB75 cells; assay type: functional
SNB-78 = assay: Growth inhibition of human SNB78 cells; assay type: functional
HCC 2998 = assay: Growth inhibition of human HCC2998 cells; assay type: functional
KM12 = assay: Growth inhibition of human KM12 cells; assay type: functional
HT-29 = assay: Growth inhibition of human HT-29 cells; assay type: functional
HCT-15 = assay: Growth inhibition of human HCT15 cells; assay type: functional
HCT-116 = assay: Growth inhibition of human HCT116 cells; assay type: functional
NCI-H23 = assay: Growth inhibition of human NCI-H23 cells; assay type: functional
NCI-H226 = assay: Growth inhibition of human NCI-H226 cells; assay type: functional
NCI-H522 = assay: Growth inhibition of human NCI-H522 cells; assay type: functional
NCI-H460 = assay: Growth inhibition of human NCI-H460 cells; assay type: functional
A549 = assay: Growth inhibition of human A549 cells; assay type: functional
DMS-273 = assay: Growth inhibition of human DMS273 cells; assay type: functional
DMS-114 = assay: Growth inhibition of human DMS114 cells; assay type: functional
LOX IMVI = assay: Growth inhibition of human LOXIMVI cells; assay type: functional
OVCAR-3 = assay: Growth inhibition of human OVCAR3 cells; assay type: functional
OVCAR-4 = assay: Growth inhibition of human OVCAR4 cells; assay type: functional
OVCAR-5 = assay: Growth inhibition of human OVCAR5 cells; assay type: functional
OVCAR-8 = assay: Growth inhibition of human OVCAR8 cells; assay type: functional
SK-OV-3 = assay: Growth inhibition of human SKOV3 cells; assay type: functional
[1] = Growth inhibition of human RXF631L cells; assay type: functional; settings: RXF 631
ACHN = assay: Growth inhibition of human ACHN cells; assay type: functional
St-4 = assay: Growth inhibition of human St-4 cells; assay type: functional
[2] = Growth inhibition of human MKN1 cells; assay type: functional; settings: MKN-1
MKN-7 = assay: Growth inhibition of human MKN7 cells; assay type: functional
MKN-28 = assay: Growth inhibition of human MKN28 cells; assay type: functional
MKN-45 = assay: Growth inhibition of human MKN45 cells; assay type: functional
MKN-74 = assay: Growth inhibition of human MKN74 cells; assay type: functional
DU-145 = assay: Growth inhibition of human DU145 cells; assay type: functional
PC-3 = assay: Growth inhibition of human PC3 cells; assay type: functional
Saccharomyces cerevisiae [3] = assay: Growth restoration activity in cdc2-1 rad9-deficient Saccharomyces cerevisiae assessed as growth zone at 12.5 to 400 ug/disc incubated at 37 degC for 6 hrs and 28 degC for 2 days; assay type: functional, organism-based
Saccharomyces cerevisiae [4] = assay: Growth restoration activity in cdc2-1 rad9-deficient Saccharomyces cerevisiae assessed as growth zone at 400 ug/disc; assay type: functional, organism-based
HL-60 [5] = assay: Cytotoxicity against human HL60 cells after 48 hrs by MTT assay; assay type: functional, cell-based; settings: HL-60, 48 h
HL-60 [6] = assay: Induction of apoptosis in human HL60 cells assessed as caspase 3/7 activation at 1 uM after 12 hrs by spectrophotometric analysis; assay type: functional, cell-based
HL-60 [7] = assay: Induction of apoptosis in human HL60 cells assessed as caspase 8 activation at 1 uM after 12 hrs by spectrophotometric analysis; assay type: functional, cell-based
HL-60 [8] = assay: Induction of apoptosis in human HL60 cells assessed as caspase 9 activation at 1 uM after 12 hrs by spectrophotometric analysis; assay type: functional, cell-based
HL-60 [9] = assay: Induction of apoptosis in human HL60 cells assessed as caspase 3/7 activation after 1 to 3 hrs by spectrophotometric analysis; assay type: functional, cell-based
HL-60 [10] = assay: Induction of apoptosis in human HL60 cells assessed as caspase 8 activation after 1 to 3 hrs by spectrophotometric analysis; assay type: functional, cell-based
HL-60 [11] = assay: Induction of apoptosis in human HL60 cells assessed as caspase 9 activation after 1 to 3 hrs by spectrophotometric analysis; assay type: functional, cell-based
HL-60 [12] = assay: Cytotoxicity against human HL60 cells after 48 hrs by MTT assay in absence of DFOM; assay type: functional, cell-based; settings: HL-60, 48 h
HL-60 [13] = assay: Cytotoxicity against human HL60 cells after 48 hrs by MTT assay in presence of DFOM; assay type: functional, cell-based; settings: HL-60, 48 h
HL-60 [14] = assay: Ratio of IC50 for human HL60 cells in presence of DFOM to IC50 for human HL60 cells in absence of DFOM; assay type: functional
[15] = Growth inhibition of human HBC4 cells; assay type: functional
[16] = Growth inhibition of human BSY1 cells; assay type: functional; settings: BSY-1
[17] = Growth inhibition of human HBC5 cells; assay type: functional
Saccharomyces cerevisiae [18] = assay: Growth restoration activity in cdc2-1 rad9-deficient Saccharomyces cerevisiae assessed as growth zone at 10 ug/disc incubated at 37 degC for 6 hrs and 28 degC for 2 days; assay type: functional
HL-60 [19] = assay: Induction of apoptosis in human HL60 cells assessed as caspase 3/7 activation at 200 uM after 1 hrs by spectrophotometric analysis; assay type: functional, cell-based
HL-60 [20] = assay: Induction of apoptosis in human HL60 cells assessed as caspase 8 activation at 200 uM after 1 hrs by spectrophotometric analysis; assay type: functional, cell-based
HL-60 [21] = assay: Induction of apoptosis in human HL60 cells assessed as caspase 9 activation at 200 uM after 1 hrs by spectrophotometric analysis; assay type: functional, cell-based
[22] = Drug metabolism in buffer at pH 8 after 24 hrs by HPLC analysis in presence of […]; assay type: physicochemical; settings: pH 8, 24 h
Saccharomyces cerevisiae [23] = assay: Growth restoration activity in cdc2-1 rad9-deficient Saccharomyces cerevisiae assessed as growth zone at 5 ug/disc incubated at 37 degC for 6 hrs and 28 degC for 2 days; assay type: functional, organism-based
HL-60 [24] = assay: Cytotoxicity against human HL60 cells at 80 uM after 48 hrs by MTT assay; assay type: functional, cell-based
Saccharomyces cerevisiae [25] = assay: Growth restoration activity in cdc2-1 rad9-deficient Saccharomyces cerevisiae assessed as growth zone at 0.05 ug/disc incubated at 37 degC for 6 hrs and 28 degC for 2 days; assay type: functional

C[C@H]1[C@@H](O)O[C@@H]2O[C@@]3(C)CC[C@H]4[C@H](C)CC[C@@H]1[C@@]24OO3 [ARTENIMOL]
GI50 (MCF7): 6.17 µM | GI50 (MDA-MB-231): 19.1 µM | GI50 (U-251): 3.31 µM | GI50 (SF-268): 20.9 µM | GI50 (SF-295): 15.5 µM | GI50 (SF-539): 9.77 µM | GI50 (SNB-75): 11.7 µM | GI50 (SNB-78): 8.32 µM | GI50 (HCC 2998): 14.8 µM | GI50 (KM12): 6.03 µM | GI50 (HT-29): 4.37 µM | GI50 (HCT-15): 0.912 µM | GI50 (HCT-116): 1.35 µM | GI50 (NCI-H23): 6.17 µM | GI50 (NCI-H226): 15.8 µM | GI50 (NCI-H522): 2.29 µM | GI50 (NCI-H460): 7.41 µM | GI50 (A549): 15.5 µM | GI50 (DMS-273): 4.47 µM | GI50 (DMS-114): 1.58 µM | GI50 (LOX IMVI): 3.16 µM | GI50 (OVCAR-3): 10.2 µM | GI50 (OVCAR-4): 12.9 µM | GI50 (OVCAR-5): 12.9 µM | GI50 (OVCAR-8): 4.17 µM | GI50 (SK-OV-3): 10.2 µM | GI50 [1]: 25.7 µM | GI50 (ACHN): 7.08 µM | GI50 (St-4): 5.37 µM | GI50 [2]: 3.89 µM | GI50 (MKN-7): 3.02 µM | GI50 (MKN-28): 4.57 µM | GI50 (MKN-45): 5.25 µM | GI50 (MKN-74): 3.98 µM | GI50 (DU-145): 18.6 µM | GI50 (PC-3): 3.16 µM | Activity (Saccharomyces cerevisiae [3]): inactive | Activity (Saccharomyces cerevisiae [4]): inactive | IC50 (HL-60 [5]): 0.26 µM | Activity (HL-60 [6]): Active | Activity (HL-60 [7]): Active | Activity (HL-60 [8]): Active | Activity (HL-60 [9]): Dose-dependent effect | Activity (HL-60 [10]): Dose-dependent effect | Activity (HL-60 [11]): Dose-dependent effect | IC50 (HL-60 [12]): 0.18 µM | IC50 (HL-60 [13]): > 20 µM | Ratio IC50 (HL-60 [14]): >100 | GI50 [15]: 2.04 µM | GI50 [16]: 11.2 µM | GI50 [17]: 5.37 µM

NC(=O)NO [HYDROXYUREA]
Activity (Saccharomyces cerevisiae [18]): 14.3 mm

CC(C)=CCC[C@@H](C)c1ccc(C)cc1
Activity (Saccharomyces cerevisiae [4]): inactive | IC50 (HL-60 [5]): 109 µM | Activity (HL-60 [19]): Active | Activity (HL-60 [20]): Active | Activity (HL-60 [21]): Active | Drug metabolism [22]: Not Active | IC50 (HL-60 [12]): 107 µM | IC50 (HL-60 [13]): 147 µM

CC(C)=CCCC(C)[C@@]12CC[C@]3(C)O[C@@H]3[C@@H]1O2 (relative stereo)
Activity (Saccharomyces cerevisiae [23]): inactive | Activity (HL-60 [24]): inactive

COc1c(C)c2c(c(O)c1C/C=C(\C)CCC(=O)O)C(=O)OC2 [MYCOPHENOLIC ACID]
Activity (Saccharomyces cerevisiae [25]): 18.5 mm
